Experimental data as given in patent US20250367229A1, “Treatment of Immune-Related Disorders, Kidney Disorders, Liver Disorders, Hemolytic Disorders, and Oxidative Stress-Associated Disorders Using NRH, NARH and Reduced Derivatives Thereof” (MitoPower LLC, priority 2021, published 2025).

How the values were obtained:
[1] = test system: peripheral blood mononuclear cells (PBMCs); test: Extracellular acidification rate (ECAR, a measure of glycolysis) in activated PBMCs, Seahorse XF; format: cell-based, human; conditions: 250 μM, 4 hr, PBMCs stimulated with anti-CD3 and anti-CD28 antibodies
Experimental: PBMCs (1.5×10^6) obtained from a healthy human adult donor were unstimulated or stimulated with anti-CD3 and anti-CD28 antibodies (1 μg/mL each) to induce T-cell activation, in the absence or presence of 250 μM NRH for 4 hr. The cells were then washed and plated on poly-D-lysine-coated Seahorse XF microplates at a density of 3×10^5 cells per well (5 replicates). The plates were centrifuged briefly and incubated at 37° C. in a non-CO2 incubator for 30 min to settle the cells in the bottom of the plate. Extracellular acidification rate (ECAR, a measure of glycolysis) and oxygen consumption rate (OCR, a measure of oxidative phosphorylation) were determined using a Seahorse XF cell mito stress test kit and a Seahorse Xfe96 analyzer (Agilent Technologies, Santa Clara, California) under basal condition or in response to 1.0 μM oligomycin (an inhibitor of ATP synthase), 1.5 μM carbonyl cyanide-p-trifluoromethoxyphenylhydrazone (FCCP, a mitochondrial uncoupler), 0.5 μM rotenone (an inhibitor of electron transport at complex I) and antimycin A (an inhibitor of electron transport at cytochrome c reductase). PBMCs include monocytes and lymphocytes including T cells, B cells and natural killer cells.

RBC hemoglobin = test: H2O2-induced oxidative changes of RBC hemoglobin in vitro (spectral scans); format: cell-based, human
Experimental: A 4 M stock solution of sodium azide was prepared. One mL of the 4 M stock azide solution was diluted with 9 mL of phosphate-buffered saline (PBS, pH 7.4) to obtain a 0.4 M stock solution, which was further diluted with PBS to obtain a 0.01 M working solution of sodium azide. Eight mL of whole blood was collected in buffered acid citrate dextrose tubes from a healthy human donor. PBS was added to 500 μL of whole blood. The samples were centrifuged, and then the supernatant from each tube was discarded to obtain a red blood cell (RBC) pellet. Ten μL of 0.01 M sodium azide working solution was added to 20 μL of RBC suspension. Twenty μL of hydrogen peroxide (H2O2) diluted in PBS was added to the RBC suspension to obtain final concentrations of H2O2 ranging from 0.01 mM to 100 mM. The samples were incubated at 37° C. for 1.5 hr. 950 μL of de-ionized water was added to the samples, which were then incubated for 10 min to lyse the RBCs and obtain hemoglobin upon centrifugation at 1,500 g. Spectral scans of the lysed samples between 200 nm and 1100 nm were obtained in 2 nm increments, using a Systronics® dual-beam UV-spectrophotometer and de-ionized water as a blank. Samples incubated with PBS at 37° C. for 1-1.5 hr were used as controls to establish the oxidative effects of H2O2 on RBC hemoglobin. Absorbance at 576 nm is a measure of hemoglobin concentration in a sample, and oxidation of hemoglobin to methemoglobin results in a drop in absorbance at 576 nm and an increase in absorbance at 630 nm. Fantao et al., Anal. Biochem., 521:11-19, (2017). Stock solutions of NRH (29.6 mM) and NR (18.3 mM) were prepared in 0.9% normal saline. Appropriate quantities of the stock NRH or NR solution and PBS were added to 500 μL of whole blood to obtain final concentrations of NRH or NR ranging from 1 μM to 1000 μM. The whole blood samples with NRH or NR were mixed gently and incubated at 37° C. for 1-1.5 hr. The samples were centrifuged, and then the supernatant was discarded to obtain an RBC pellet for each sample.

[2] = Stability in human serum in vitro (absorbance over time); format: in vitro ADME; conditions: 100 μM, 37° C.
Experimental: Three blood samples were collected from healthy human donors with the same blood group in serum separator vacutainer gel tubes. The samples were centrifuged at 1,800 g to separate serum. The serum samples obtained were pooled together into a separate tube.
NR, NRH and NRH-triacetate (NRHTA) were initially dissolved in DMSO and then diluted with normal saline to obtain a 1 mM stock solution of each compound. 100 μL of stock solution was added to 900 μL of pooled serum to assess the stability of the test compound in human serum. 200 μL of saline with 1,800 μL of pooled serum was used to prepare a solution for blanking and as a reference measurement. The stock solutions were diluted in the pooled serum and normal saline to prepare 100 μM solutions of the test compounds.
In previous experiments, spectral scans between 190 nm and 1100 nm were performed to determine absorbance maxima for NR, NRH and NRHTA, which have maximal absorbance at 265 nm, 340 nm and 331 nm, respectively, in solution.
The stability of a test compound in human serum was determined by a change in the concentration of the compound as measured by a change in absorbance at the maximal absorbance wavelength for the compound as a function of time. The test compounds at 100 μM were incubated in human serum at 37° C. Absorbance measurements were made at 0 min (T0), 5 min, 30 min, 120 min, 240 min, 360 min and 1440 min (24 hr). The relative change in absorbance compared to T0 was plotted and used for statistical analysis. The analysis was performed in triplicates.

HEK293 cells = test: NADH/NAD+ ratio in H2O2-exposed HEK293 cells (NAD/NADH-Glo); format: cell-based; conditions: NRH at 100 and 1000 μM, NR at all tested concentrations (0.01-1000 μM)
Experimental: HEK293 cells were trypsinized and plated at a density of 60,000 cells per well. The cells were then treated with H2O2 (600 μM prepared with Dulbecco's Modified Eagle Medium [DMEM]) for 30 min. The media was then replaced with serum media (DMEM supplemented with 10% fetal bovine serum [FBS]) containing NRH or NR, and were incubated at 37° C. under 6% CO2 for 30 min or 6 hr. The cells were incubated with the following concentrations of NRH or NR: 0.01, 0.1, 1.0, 10, 100 and 1000 μM. NAD^+ and NADH levels at 30 min and 6 hr were estimated using the NAD/NADH-Glo Promega Bioluminescent assay. The results were expressed as fold change relative to the values obtained with untreated cells.

red blood cells (RBCs) = test: H2O2-induced hemolysis in vitro; format: cell-based; conditions: 2000, 200 and 20 μM, pre-incubation 1 hr at 37° C., then H2O2 4 hr
Experimental: Individual test compounds were dissolved in 0.9% normal saline to prepare 0.3 M stock solutions. A 0.3 M stock solution was added to a 20% suspension of washed red blood cells (RBCs) in saline to obtain final concentrations of 2000 μM, 200 μM and 20 μM of the compound. The RBC suspensions were incubated with the test compound at 37° C. for 1 hr prior to testing. A 2.5% H2O2 solution was prepared fresh by dilution with normal saline and chilled at 2-8° C. before use. Each RBC suspension containing the test compound was split into tubes A and B. 250 μL of the chilled H2O2 solution was added to 250 μL of RBC suspension in each tube while maintaining the tubes in an ice bath. The tubes were incubated at 37° C. for 4 hr, and then 4.5 mL of saline or de-ionized water was added to tube A or tube B, respectively. After the tubes were incubated for 10 min, the mixture in the tubes was centrifuged at 1800 g, and then absorbance was measured in the supernatant at 540 nm. The percentage of hemolysis was calculated as: […]

CD4^+ T cells [3] = test: Mitochondrial membrane depolarization (JC-1, flow cytometry) in CD4+ T cells; format: cell-based, human; conditions: 250 μM, 24 hr, unstimulated or stimulated with anti-CD3 and anti-CD28 antibodies
Experimental: (§1) PBMCs (10^6 cells per test group) obtained from healthy human adult donors were unstimulated or stimulated with anti-CD3 and anti-CD28 antibodies to induce T-cell activation, in the absence or presence of 250 μM of NRH or NRH-triacetate (NRHTA). Measurements were made at 5, 15 and 24 hr after treatment.
(§2) After the indicated time of incubation, the PBMCs were stained with anti-CD3, anti-CD4 and anti-CD8 antibodies (Biolegend), JC-1 (1 μM, Thermo Fisher) and annexin V (Thermo Fisher) prior to analysis by flow cytometry. Annexin V binds to cell-surface phosphatidylserine, which is a marker for different forms of cell death including apoptosis and necrosis. The stained cells were re-suspended in phosphate-buffered saline (PBS) and acquired in a Cytek Aurora flow cytometer using a FlowJo software (v10) for analysis. About 200,000-300,000 cells were acquired in the flow cytometer for analysis. Standard procedures for spectral compensation were performed to obtain cell populations. Lymphocytes identified by forward and side scatter were gated to obtain CD3^+/CD4^+ and CD3^+/CD8^+ T-cell populations. Those T-cell populations were gated to identify the red and green signals for JC-1 aggregate and monomer, respectively, and annexin V. The percentage of cells staining green by JC-1 monomer was used to determine the percentage of cells with depolarized mitochondria. […]

CD4^+ T cells [4] = test: Cell death including apoptosis (annexin V, flow cytometry) of CD4+ T cells with depolarized mitochondria; format: cell-based, human; conditions: 250 μM, 24 hr, unstimulated or stimulated with anti-CD3 and anti-CD28 antibodies
Experimental: as §1, §2

CD4^+ T cells [5] = test: Ex vivo polyclonal immune activation model: cytokine production in CD4+ T cells; format: cell-based, human; conditions: stimulated with anti-CD3 and anti-CD28 antibodies; data not shown
Experimental: (§3) Heparinized venous blood was collected from healthy human adult donors. Peripheral blood mononuclear cells (PBMCs) were isolated by Ficoll-Hypaque density-gradient centrifugation. PBMCs (1.0×10^6) were seeded in round-bottom, 96-well plates in 200 μL of medium, unstimulated or stimulated with an anti-CD3 antibody ([…], clone-HIT3a, Biolegend) plus an anti-CD28 antibody (1 μg/mL, clone-CD28.2, Biolegend) to induce T-cell activation, and incubated in cell-culture medium. The PBMCs were unstimulated or stimulated with anti-CD3 and anti-CD28 antibodies to induce T-cell activation, in the absence or presence of 250 μM NRH. After 18 hours of incubation, lymphocytes were analyzed for intracellular levels of IFN-γ, TNF-α and IL-2 by flow cytometry. Intracellular cytokine production was stopped by treating the cells with Golgi stop after 1 hr of treatment.

CD8^+ T cells [6] = test: Mitochondrial membrane depolarization (JC-1, flow cytometry) in CD8+ T cells; format: cell-based, human; conditions: 250 μM, 24 hr, unstimulated or stimulated with anti-CD3 and anti-CD28 antibodies
Experimental: as §1, §2

CD8^+ T cells [7] = test: Cell death including apoptosis (annexin V, flow cytometry) of CD8+ T cells with depolarized mitochondria; format: cell-based, human; conditions: 250 μM, 24 hr, unstimulated or stimulated with anti-CD3 and anti-CD28 antibodies
Experimental: as §1, §2

CD8^+ T cells [8] = test: Ex vivo polyclonal immune activation model: intracellular cytokine production in CD8+ T cells (flow cytometry); format: cell-based, human; conditions: stimulated with anti-CD3 and anti-CD28 antibodies; data not shown
Experimental: as §3

SMILES | extracellular acidification rate (ECAR, a measure of glycolysis) in activated PBMCs [1] | A576/A630 ratio (a measure of the hemoglobin/methemoglobin ratio) (RBC hemoglobin; RBCs exposed to 1 mM H2O2, 1 μM or 100 μM NRH, NR data not shown) | protection of hemoglobin from 1 mM H2O2-induced oxidative changes (amplitude of absorbance peaks at 576, 540, 434, 348 and 270 nm) (RBC hemoglobin; pre-incubation of RBCs with 1, 10 and 100 µM) | compound remaining intact in human serum within 5 min ([2]; within 5 min of addition, absorbance at 265 nm) | NADH/NAD+ ratio in HEK293 cells exposed to H2O2 (HEK293 cells; 30 min of incubation) | NADH/NAD+ ratio in HEK293 cells exposed to H2O2 (HEK293 cells; 6 hr of incubation) | H2O2-induced hemolysis (red blood cells (RBCs)) | mitochondrial membrane depolarization in CD4+ T cells (CD4^+ T cells [3]) | cell death including apoptosis of CD4+ T cells with depolarized mitochondria (CD4^+ T cells [4]) | production of pro-inflammatory cytokines (e.g., TNF-α, IL-2, IFN-γ) by CD4+ T cells (CD4^+ T cells [5]) | mitochondrial membrane depolarization in CD8+ T cells (CD8^+ T cells [6]) | compound remaining intact in human serum after 6 hr ([2]; 6 hr) | compound remaining intact in human serum after 24 hr ([2]; 24 hr) | stability in human serum compared with NR ([2]; up to 24 hr, p<0.05) | cell death including apoptosis of CD8+ T cells with depolarized mitochondria (CD8^+ T cells [7]) | production of pro-inflammatory cytokines (e.g., TNF-α, IL-2, IFN-γ) by CD8+ T cells (CD8^+ T cells [8])
NC(=O)c1ccc[n+]([C@@H]2O[C@H](CO)[C@@H](O)[C@H]2O)c1 [NR, nicotinamide riboside, reference compound] | Unlike NR (data not shown), NRH reduced glycolysis | did not significantly affect | not with NR (MP02), protected hemoglobin | most of NR did not remain intact | did not significantly affect | did not significantly affect | neither NR (MP-02) nor NR-triacetate (MP-39) at any concentration tested, reduced H2O2-induced hemolysis |  |  |  |  |  |  |  |  | 
CC(=O)OC[C@H]1O[C@@H]([n+]2cccc(C(N)=O)c2)[C@H](OC(C)=O)[C@@H]1OC(C)=O.O=S(=O)([O-])C(F)(F)F [NR-triacetate, 3-Carboxamide-N-(2,3,5-tri-O-acetyl-β-D-ribofuranosyl)pyridinium Triflate, reference compound] |  |  |  |  |  |  | neither NR (MP-02) nor NR-triacetate (MP-39) at any concentration tested, reduced H2O2-induced hemolysis |  |  |  |  |  |  |  |  | 
CC(=O)OC[C@H]1O[C@@H](N2C=CCC(C(N)=O)=C2)[C@H](OC(C)=O)[C@@H]1OC(C)=O [NRH-triacetate, N-(2,3,5-tri-O-acetyl-β-D-ribofuranosyl)dihydronicotinamide] |  |  |  |  |  |  | reduced H2O2-induced hemolysis | significantly induced | reduced cell death | reduced production of pro-inflammatory cytokines | significantly induced | Most of both NRH and NRH-triacetate remained intact | about 50% | much more stable | reduced cell death | reduced production of pro-inflammatory cytokines
